Measurements reported in patent US20240415918A1, “Polypeptide and its use as a CCK receptor agonist/antagonist” (Centre for Regenerative Medicine & Health, Hong Kong …, priority 2021, published 2024).
Entries after “also recorded” stand apart in the source; their conditions may differ.

Assays:
[1] = target: T1, CCK-B receptors (CHO-CCK) (Homo sapiens, UniProt P32239); experiment: Calcium flux (Fluo-8) antagonist test on CHO-CCK model cells in presence of CCK8; type: cell-based; details: in presence of 10 nM CCK8
T1 construct: expressed in transfected cells; host or cells: CHO (CHO-CCK model cells)
T1 sequence (P32239 1-447): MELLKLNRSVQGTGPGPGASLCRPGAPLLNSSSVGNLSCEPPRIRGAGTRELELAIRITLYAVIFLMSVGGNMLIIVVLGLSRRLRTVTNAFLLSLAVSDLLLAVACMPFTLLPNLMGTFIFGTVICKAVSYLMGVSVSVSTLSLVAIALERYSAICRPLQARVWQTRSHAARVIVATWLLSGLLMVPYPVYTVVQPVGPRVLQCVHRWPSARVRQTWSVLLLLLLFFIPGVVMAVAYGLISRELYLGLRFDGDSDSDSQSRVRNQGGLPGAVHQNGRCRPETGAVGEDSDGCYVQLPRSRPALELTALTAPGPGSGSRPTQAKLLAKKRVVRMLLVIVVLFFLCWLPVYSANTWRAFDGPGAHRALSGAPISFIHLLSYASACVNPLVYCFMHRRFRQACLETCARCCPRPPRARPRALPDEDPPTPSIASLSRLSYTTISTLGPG

memory-deficient mice [2] = experiment: Morris water maze, memory-deficient mice; type: in vivo; details: intraperitoneal injection, CCK4 four times a day 10 days, HT compounds once a day 8 days
Description: Adult memory-deficient mice were housed under standard conditions with free access to food and water. Our Morris water maze experiment for testing memory-deficient mice mainly included two parts: positioning navigation experiment and space exploration experiment. The experimental methods were the same as Example 5. We randomized memory-deficient mice into six groups, with the first group given intraperitoneal injection of the CCK4 solution, the second group given intraperitoneal injection of the solvent of CCK4 solution as a control, the third group given intraperitoneal injection of the compound HT-267 solution, the fourth group given intraperitoneal injection of the compound HT-177 solution, the fifth group given intraperitoneal injection of the compound HT-178 solution, and the sixth group given intraperitoneal injection of the solvent of compound solution as a control. In the positioning navigation experiment, the treatment and training methods of the first and the second groups were the same as those of the first and second groups in Example 5, that is, four times of treatment a day, four times of training a day, for a total of 10 days of training. The treatment and training methods of the third to sixth groups were the same as the third and fourth groups in Example 5, that is, one treatment a day, four times of training a day, for a total of 8 days of training. In the space exploration experiment, the spatial memory ability of mice was tested in the same way for each group.

[3] = test system: tri-transgenic Alzheimer's mice (3×Tg-AD); experiment: New object recognition experiment, Alzheimer's mice; type: in vivo; details: intraperitoneal injection
Description: (§1) The new object recognition experiment is a highly validated method of cognitive memory, designed by Ennaceur & Delacour (1988) based on the exploration characteristics of rodents to new environments, and this model evaluates the memory function of the tested animal based on the length of time that the animal spends in exploring familiar objects it has seen in the environment and new objects it has not seen. […] The experiment is usually divided into three stages: 1. Adaptation period: let the animal be familiar with the experimental environment, and no objects are placed in the experimental box; 2. Familiarization period: place two identical objects in the experimental box and let the mice explore freely for 10 minutes; 3. Test period: put a new object in the experimental box to replace one of the old objects, and the positions of the objects remain unchanged. The exploration of mice was recorded with video, and the time spent in exploring the old and new objects by mice was analyzed, and the proportion of time spent in exploring the new object by mice in the test period accounting for the total time for exploring the objects was calculated, that is, the recognition index of new objects.
Adult male tri-transgenic Alzheimer's mice (3×Tg-AD) were housed under standard conditions with free access to food and water. […]

memory-deficient mice [4] = experiment: New object recognition experiment, memory-deficient mice; type: in vivo; details: intraperitoneal injection
Description: as §1
Adult memory-deficient mice were housed under standard conditions with free access to food and water. Our new object recognition experiment for testing memory-deficient mice mainly included the adaptation period, the familiarization period, and the test period. The experimental method was the same as Example 12.
We randomized memory-deficient mice into four groups, with one group given intraperitoneal injection of the solvent of drug as the control group, administration group 1 given intraperitoneal injection of the compound HT-267 solution, administration group 2 given intraperitoneal injection of the compound HT-177 solution, and administration group 3 given intraperitoneal injection of the compound HT-178 solution. After the adaptation and familiarization period training, we tested the recognition memory of several groups of mice in the test period experiment.

neocortex of senile mice = experiment: Long-term potentiation, in vitro field potential recording of brain slices (MED64), senile mice; type: cell-based; details: compound injected for five minutes
Description: Long-term potentiation (LTP) is considered by researchers to be one of the memory mechanisms. We used an in vitro electrophysiological electrical signal recording method to investigate whether compound HT-267 can induce long-term potentiation in the neocortex of senile mice.
We used an MED64 low-noise multi-electrode recording system to record the electrical signals of brain slices cultured in vitro.

[5] = test system: neocortex of Alzheimer's mice; experiment: Long-term potentiation, in vitro field potential recording of brain slices (MED64), Alzheimer's mice; type: cell-based; details: compound injected for five minutes
Description: An in vitro electrophysiological electrical signal recording method was used to investigate whether compound HT-267 can induce long-term potentiation in the neocortex of Alzheimer's mice. The MED64 low-noise multi-electrode recording system was used to record the electrical signals of brain slices cultured in vitro. […] It was shown that compound HT-267 could induce long-term potentiation in the neocortex of Alzheimer's mice.

[6] = test system: neocortex of memory-deficient mice; experiment: Long-term potentiation, in vitro field potential recording of brain slices (MED64), memory-deficient mice; type: cell-based; details: compound injected for five minutes
Description: An in vitro electrophysiological electrical signal recording method was used to investigate whether compound HT-267, compound HT-177, and compound HT-178 can induce long-term potentiation in the neocortex of memory-deficient mice. The MED64 low-noise multi-electrode recording system was used to record the electrical signals of brain slices cultured in vitro.

- EC50 [1]: 23.8 nM
Structure (SMILES): CSCC[C@H](NC(=O)[C@@H](Cc1c[nH]c2ccccc12)NC(C)=O)C(=O)N[C@@H](CC(=O)O)C(=O)N[C@@H](Cc1cccc(Br)c1)C(N)=O [HT-267, Ac-D-Trp-Met-Asp-Phe(3-Br)-NH2]
- proportion of exploration duration in the target quadrant vs control (memory-deficient mice [2]): significantly higher than that in the control group; also recorded: best effect
- recognition index of new objects vs control [3]: significantly higher than that of the control group
- recognition index of new objects vs control (memory-deficient mice [4]): significantly higher than that of the control group
- basal field potential after administration (long-term potentiation) (neocortex of senile mice): enhanced, and the enhancement lasted for more than one hour
- basal field potential after administration (long-term potentiation) [5]: enhanced, and the enhancement lasted for more than one hour
- basal field potential after administration (long-term potentiation) [6]: enhanced, and the enhancement lasted for more than one hour
